Results from the NIST ThermoML archive (doi:10.1021/je0603574).
“And” between values parts separate entries of the source, which are not always exact repeats. Equal entries are not always repeated. ± gives the expanded uncertainty stated by the source.

How the values were obtained:
[1] = 323.15 K; Liquid; Closed cell (Static) method
[2] = excess molar enthalpy (molar enthalpy of mixing); xn = mol fraction of the nth substance listed; conditions: 323.15 K, Liquid, Flow calorimetry

CCCCO [butan-1-ol]
Conditions	vapor or sublimation pressure [kPa]
[1]	4.61 ± 0.05

COC [dimethyl ether]
Conditions	vapor or sublimation pressure
[1]	1143 ± 5.1 kPa and 1142.9 ± 5.1 kPa and 1143.2 ± 5.1 kPa

COC [dimethyl ether] + CCCCO
[2]
Conditions	excess molar enthalpy [kcal/mol]
x1 = 0.0655	0.0435 ± 0.001
x1 = 0.129	0.0805 ± 0.00177
x1 = 0.1904	0.114 ± 0.00239
x1 = 0.2499	0.141 ± 0.00311
x1 = 0.3076	0.161 ± 0.00359
x1 = 0.3635	0.179 ± 0.00382
x1 = 0.4178	0.191 ± 0.00406
x1 = 0.4705	0.199 ± 0.0043
x1 = 0.5216	0.203 ± 0.0043
x1 = 0.5713	0.204 ± 0.0043
x1 = 0.6196	0.199 ± 0.0043
x1 = 0.6666	0.192 ± 0.00406
x1 = 0.7122	0.182 ± 0.00382
x1 = 0.7567	0.167 ± 0.00359
x1 = 0.7999	0.15 ± 0.00311
x1 = 0.842	0.129 ± 0.00287
x1 = 0.8831	0.103 ± 0.00225
x1 = 0.923	0.0729 ± 0.00163
x1 = 0.962	0.0387 ± 0.000908

COC [dimethyl ether] + CCCO
[2]
Conditions	excess molar enthalpy [kcal/mol]
x1 = 0.0541	0.0344 ± 0.000813
x1 = 0.1078	0.0655 ± 0.00146
x1 = 0.161	0.0937 ± 0.00206
x1 = 0.2138	0.118 ± 0.00263
x1 = 0.2661	0.139 ± 0.00311
x1 = 0.3179	0.158 ± 0.00335
x1 = 0.3693	0.173 ± 0.00382
x1 = 0.4203	0.184 ± 0.00406
x1 = 0.4708	0.192 ± 0.00406
x1 = 0.521	0.197 ± 0.0043
x1 = 0.5707	0.197 ± 0.0043
x1 = 0.62	0.195 ± 0.0043
x1 = 0.6688	0.189 ± 0.00406
x1 = 0.7173	0.178 ± 0.00382
x1 = 0.7654	0.164 ± 0.00359
x1 = 0.8131	0.144 ± 0.00311
x1 = 0.8604	0.119 ± 0.00263
x1 = 0.9073	0.0865 ± 0.00191
x1 = 0.9538	0.0466 ± 0.00108

COC [dimethyl ether] + CCO
[2]
Conditions	excess molar enthalpy [kcal/mol]
x1 = 0.0428	0.0209 ± 0.000526
x1 = 0.0862	0.0423 ± 0.00098
x1 = 0.1303	0.0624 ± 0.00139
x1 = 0.175	0.0815 ± 0.00179
x1 = 0.2205	0.0994 ± 0.00217
x1 = 0.2667	0.116 ± 0.00263
x1 = 0.3137	0.131 ± 0.00287
x1 = 0.3614	0.145 ± 0.00311
x1 = 0.4098	0.156 ± 0.00335
x1 = 0.4591	0.166 ± 0.00359
x1 = 0.5092	0.171 ± 0.00359
x1 = 0.5601	0.175 ± 0.00382
x1 = 0.6118	0.177 ± 0.00382
x1 = 0.6645	0.173 ± 0.00382
x1 = 0.718	0.166 ± 0.00359
x1 = 0.7725	0.153 ± 0.00335
x1 = 0.8279	0.132 ± 0.00287
x1 = 0.8842	0.102 ± 0.00222
x1 = 0.9416	0.0583 ± 0.00131

COC [dimethyl ether] + CO
[2]
Conditions	excess molar enthalpy [kcal/mol]
x1 = 0.03	0.00583 ± 0.000239
x1 = 0.0614	0.0128 ± 0.000359
x1 = 0.0941	0.0203 ± 0.000526
x1 = 0.1282	0.0289 ± 0.000693
x1 = 0.164	0.0375 ± 0.00086
x1 = 0.2014	0.0466 ± 0.00105
x1 = 0.2406	0.0564 ± 0.00127
x1 = 0.2818	0.0664 ± 0.00148
x1 = 0.325	0.0765 ± 0.0017
x1 = 0.3704	0.0863 ± 0.00189
x1 = 0.4183	0.0949 ± 0.00208
x1 = 0.4688	0.104 ± 0.00227
x1 = 0.5222	0.112 ± 0.00239
x1 = 0.5786	0.117 ± 0.00263
x1 = 0.6384	0.12 ± 0.00263
x1 = 0.7018	0.12 ± 0.00263
x1 = 0.7693	0.113 ± 0.00239
x1 = 0.8412	0.0951 ± 0.00208
x1 = 0.9179	0.0605 ± 0.00136

CCO [ethanol]
Conditions	vapor or sublimation pressure [kPa]
[1]	29.37 ± 0.14

CO [methanol]
Conditions	vapor or sublimation pressure [kPa]
[1]	55.3 ± 0.25

CCCO [propan-1-ol]
Conditions	vapor or sublimation pressure [kPa]
[1]	12.32 ± 0.07
